Source: patent publication US20250382583A1, “ENHANCED METHODS FOR INDUCING AND MAINTAINING NAIVE HUMAN PLURIPOTENT STEM CELLS” (Washington University, priority 2021, published 2025)

Columns and labels:
H9-naïve hESCs [1] = assay: Extended maintenance assay, flow cytometry for naïve-specific CD75 and SUSD2; assay type: cell-based, human; conditions: serum-free media supplemented with XGY, 2.5 μM compound
Procedure: (§1) Defining alternative naïve maintenance media: To define the activity of selected hit compounds during extended naïve culture, naïve hESCs derived from the primed state and maintained in 5i/L/A were dissociated with Accutase (Thermo Fischer Scientific, A1110501) and 1.5×10^5 single cells were seeded in 5i/L/A media on MEF-coated plates. After 24 hours, 5i/L/A media were switched to experimental maintenance conditions to validate hits from the screen. After 4-6 days the cells were split in a 1:2 or 1:3 ratio and further maintained for 4-6 days before analysis by FACS, qRT-PCR, AP staining, and/or RNA-seq. 5i/L/A media in which the MEK inhibitor PD0325901 was replaced with 5 μM AZ628 are represented as alternative 5i/L/A (a5i/L/A). FXGY, AXGY, AXGYU, PXGY, and GXGY media were prepared in serum-free N2B27 media supplemented with 1 μM PD166866, 5 μM AZ628, 5 μM AZ628 and 1 μM UNC0638, 1 μM PD0325901, and 5 μM GDC-0994, respectively, together with 2 μM XAV939, 2 μM Gö6983, and 10 μM Y-27632. During these assays cells were fed with fresh media every second day and cultured in 5% O2, 5% CO2 at 37° C. Detailed information on conditions used for defining alternative naïve maintenance media can be found in Tables 1-6.
Flow cytometry: Primed hESCs were single-cell dissociated using TrypLE Express, while Accutase was used for naïve hESCs. Cells were resuspended in fibroblast medium and centrifuged. Cell pellets were washed in 5 mL ice-cold PBS. The cells were then resuspended in […] fresh ice-cold FACS buffer (PBS supplemented with 5% FBS), and incubated with antibodies for 30 minutes on ice in the dark. The following antibodies were used: anti-SUSD2-PE (1:100), anti-CD75-eFluor 660 (1:100), anti-CD90-PE (1:100), anti-ITGA6-FITC (1:100) and EGFR-APC (1:25). Post-incubation the cells were washed once with 1 mL ice-cold PBS, resuspended in fresh 500 μl FACS buffer, and passed through a […] cell strainer into round bottom FACS tubes (Corning, #352235). Flow cytometry was performed using a BD LSRFortessa X-20 and the data were analyzed using the FlowJo software.

p-ERK1/2 = conditions: stated as known; cited from earlier work
[2] = test system: WIBR3 OCT4-ΔPE-GFP+-naïve hESCs; assay: Extended maintenance assay, OCT4-ΔPE-GFP reporter activity (imaging, qRT-PCR); assay type: cell-based, human; conditions: in the presence of ROCK inhibitor (Y) alone; 2.5 and 5 μM; two passages
Procedure: as §1
(§2) Quantitative reverse transcriptase PCR (qRT-PCR): Total RNA was isolated using the E.Z.N.A. total RNA kit I and cDNA synthesis was performed from total RNA using the high-capacity cDNA reverse transcription kit (Applied Biosystems, 4368814). qRT-PCR was performed using PowerUp SYBR Green Master Mix (Applied Biosystems, A25743) on the StepOnePlus Real-Time PCR System (Applied Biosystems). Gene expression was normalized to RPLP0 and analyzed using the ΔCt method. Error bars represent the standard deviation (SD) of the mean of technical replicates.
For this purpose, WIBR3 OCT4-ΔPE-GFP+-naïve hESCs that were generated in the absence of reprogramming transgenes were used using the 5i/L/A cocktail. […] Compounds were tested at two different concentrations (2.5 and 5 μM), and cells were maintained for two passages (FIG. 2A).

H9-naïve hESCs [3] = assay: qRT-PCR for naïve-specific transcripts (KLF17, DNMT3L) during naïve maintenance; assay type: cell-based, human; conditions: in XAV/Gö/Y; KLF17 and DNMT3L
Procedure: as §1, §2

For `Cn1nccc1Nc1nccc(-c2ccn([C@H](CO)c3ccc(Cl)c(F)c3)c(=O)c2)n1` [GDC-0994, (S)-1-(1-(4-chloro-3-fluorophenyl)-2-hydroxyethyl)-4-(2-((1-methyl-1H-pyrazol-5-yl)amino)pyrimidin-4-yl)pyridin-2(1H)-one], the “sustaining CD75/SUSD2-positive cells over multiple passages” value (H9-naïve hESCs [1]) is given as “robustly sustained”, the “effect on phosphorylation of cellular ERK1/2” value (p-ERK1/2) is given as “not to alter” and the “activity in maintaining OCT4-ΔPE-GFP reporter activity after passaging” value [2] is given as “showed activity”. The “concentration effective to maintain expression of naïve-specific transcripts (titration)” value (H9-naïve hESCs [3]) was 5 µM.
